Assay results as given in PubChem BioAssay (NCI).
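Values below derive from 48-hour exposures of cells grown in 96-well plates, with endpoints linearly interpolated between the two concentrations bracketing the appropriate inhibition level. GI50: concentration for 50% inhibition of growth. TGI: concentration producing complete growth inhibition.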

How the values were obtained:
Test in all cases: NCI-60 cell line screen, 48 h
HCT-15 colon = tested on: HCT-15 colon
UACC-257 melanoma = tested on: UACC-257 melanoma
NCI-H226 lung = tested on: NCI-H226 lung
OVCAR-8 ovarian = tested on: OVCAR-8 ovarian
SNB-75 CNS = tested on: SNB-75 CNS
A498 renal = tested on: A498 renal
HOP-92 NSCLC = tested on: HOP-92 NSCLC
U251 CNS = tested on: U251 CNS
RPMI-8226 leukemia = tested on: RPMI-8226 leukemia
SW-620 colon = tested on: SW-620 colon
UACC-62 melanoma = tested on: UACC-62 melanoma
SNB-78 CNS = tested on: SNB-78 CNS
SK-OV-3 ovarian = tested on: SK-OV-3 ovarian
SNB-19 CNS = tested on: SNB-19 CNS
MOLT-4 leukemia = tested on: MOLT-4 leukemia
CAKI-1 renal = tested on: CAKI-1 renal
KM20L2 colon = tested on: KM20L2 colon
A549 NSCLC = tested on: A549 NSCLC
UO-31 renal = tested on: UO-31 renal
SK-MEL-5 melanoma = tested on: SK-MEL-5 melanoma
IGROV1 ovarian = tested on: IGROV1 ovarian
LOX IMVI melanoma = tested on: LOX IMVI melanoma
M14 melanoma = tested on: M14 melanoma
K-562 leukemia = tested on: K-562 leukemia
SR leukemia = tested on: SR leukemia
OVCAR-5 ovarian = tested on: OVCAR-5 ovarian
COLO 205 colon = tested on: COLO 205 colon
OVCAR-4 ovarian = tested on: OVCAR-4 ovarian
SF-268 CNS = tested on: SF-268 CNS
DMS 273 small cell lung = tested on: DMS 273 small cell lung
HOP-62 NSCLC = tested on: HOP-62 NSCLC
OVCAR-3 ovarian = tested on: OVCAR-3 ovarian
HL-60(TB) leukemia = tested on: HL-60(TB) leukemia
NCI-H460 lung = tested on: NCI-H460 lung
EKVX NSCLC = tested on: EKVX NSCLC
SK-MEL-28 melanoma = tested on: SK-MEL-28 melanoma
TK-10 renal = tested on: TK-10 renal
HT29 colon = tested on: HT29 colon
ACHN renal = tested on: ACHN renal
786-0 renal = tested on: 786-0 renal
CCRF-CEM leukemia = tested on: CCRF-CEM leukemia
SN12C renal = tested on: SN12C renal
SK-MEL-2 melanoma = tested on: SK-MEL-2 melanoma
NCI-H23 lung = tested on: NCI-H23 lung
HCT-116 colon = tested on: HCT-116 colon
NCI-H522 lung = tested on: NCI-H522 lung
XF 498 CNS = tested on: XF 498 CNS
KM12 colon = tested on: KM12 colon
LXFL 529 NSCLC = tested on: LXFL 529 NSCLC
RXF 393 renal = tested on: RXF 393 renal
SF-295 CNS = tested on: SF-295 CNS
RXF-631 renal = tested on: RXF-631 renal
SF-539 CNS = tested on: SF-539 CNS
MALME-3M melanoma = tested on: MALME-3M melanoma
M19-MEL melanoma = tested on: M19-MEL melanoma
DLD-1 colon = tested on: DLD-1 colon
HCC-2998 colon = tested on: HCC-2998 colon

Compound: CCCCCCCCCCCc1noc2c1C(=O)C(O)CC2 (configuration not stated)
- TGI (HCT-15 colon): 43.7 µM
- TGI (UACC-257 melanoma): 42.3 µM
- TGI (NCI-H226 lung): 35.9 µM
- TGI (OVCAR-8 ovarian): 35.8 µM
- TGI (SNB-75 CNS): 84.5 µM
- TGI (A498 renal): 88.5 µM
- TGI (HOP-92 NSCLC): 42.8 µM
- TGI (U251 CNS): 28.3 µM
- TGI (RPMI-8226 leukemia): 67.7 µM
- TGI (SW-620 colon): 35.6 µM
- TGI (UACC-62 melanoma): 33.8 µM
- TGI (SNB-78 CNS): 65.1 µM
- TGI (SK-OV-3 ovarian): 94.8 µM
- TGI (SNB-19 CNS): 67.2 µM
- TGI (MOLT-4 leukemia): 65.7 µM
- TGI (CAKI-1 renal): > 100 µM
- TGI (KM20L2 colon): 31.8 µM
- TGI (A549 NSCLC): 55 µM
- TGI (UO-31 renal): 71.2 µM
- TGI (SK-MEL-5 melanoma): 30.2 µM
- TGI (IGROV1 ovarian): > 100 µM
- TGI (LOX IMVI melanoma): 34.4 µM
- TGI (M14 melanoma): 94.6 µM
- TGI (K-562 leukemia): 42.8 µM
- TGI (SR leukemia): 78 µM
- TGI (OVCAR-5 ovarian): 42.6 µM
- TGI (COLO 205 colon): 83 µM
- TGI (OVCAR-4 ovarian): 33 µM
- TGI (SF-268 CNS): > 100 µM
- TGI (DMS 273 small cell lung): 30.4 µM
- TGI (HOP-62 NSCLC): > 100 µM
- TGI (OVCAR-3 ovarian): 34.3 µM
- TGI (HL-60(TB) leukemia): 65.5 µM
- TGI (NCI-H460 lung): 37.7 µM
- TGI (EKVX NSCLC): > 100 µM
- TGI (SK-MEL-28 melanoma): 75.2 µM
- TGI (TK-10 renal): > 100 µM
- TGI (HT29 colon): 33.2 µM
- TGI (ACHN renal): > 100 µM
- TGI (786-0 renal): 34.1 µM
- TGI (CCRF-CEM leukemia): 64.9 µM
- TGI (SN12C renal): 30.4 µM
- TGI (SK-MEL-2 melanoma): 38.7 µM
- TGI (NCI-H23 lung): 31.9 µM
- TGI (HCT-116 colon): 41.6 µM
- TGI (NCI-H522 lung): 40 µM
- TGI (XF 498 CNS): 27 µM
- TGI (KM12 colon): 57.1 µM
- TGI (LXFL 529 NSCLC): 33.1 µM
- TGI (RXF 393 renal): 27.5 µM
- TGI (SF-295 CNS): 39.6 µM
- TGI (RXF-631 renal): 36.7 µM
- TGI (SF-539 CNS): 54.7 µM

Compound: CC(=O)CC(=O)Nc1c(C)[c]([Hg][O]C(C)=O)c(C)[c]([Hg][O]C(C)=O)[c]1[Hg][O]C(C)=O
- GI50 (HCT-15 colon): 15.1 µM
- TGI (HCT-15 colon): 35.7 µM
- GI50 (UACC-257 melanoma): 14.4 µM
- TGI (UACC-257 melanoma): 28.5 µM
- GI50 (NCI-H226 lung): 29.4 µM
- TGI (NCI-H226 lung): 56.5 µM
- GI50 (OVCAR-8 ovarian): 10.9 µM
- TGI (OVCAR-8 ovarian): 24.4 µM
- GI50 (SNB-75 CNS): 12.9 µM
- TGI (SNB-75 CNS): 25.9 µM
- GI50 (A498 renal): 15.3 µM
- TGI (A498 renal): 28.8 µM
- GI50 (MALME-3M melanoma): 6.56 µM
- TGI (MALME-3M melanoma): 20.4 µM
- GI50 (U251 CNS): 11.7 µM
- TGI (U251 CNS): 24.6 µM
- GI50 (SW-620 colon): 10 µM
- TGI (SW-620 colon): 27.4 µM
- GI50 (UACC-62 melanoma): 11.8 µM
- TGI (UACC-62 melanoma): 24.1 µM
- GI50 (SNB-78 CNS): 22.7 µM
- TGI (SNB-78 CNS): 58.4 µM
- GI50 (SK-OV-3 ovarian): 20.9 µM
- TGI (SK-OV-3 ovarian): 35.3 µM
- GI50 (SNB-19 CNS): 2.47 µM
- TGI (SNB-19 CNS): 6.61 µM
- GI50 (MOLT-4 leukemia): 10.3 µM
- TGI (MOLT-4 leukemia): > 100 µM
- GI50 (CAKI-1 renal): 18.6 µM
- TGI (CAKI-1 renal): 32.6 µM
- GI50 (KM20L2 colon): 18.8 µM
- TGI (KM20L2 colon): 48.2 µM
- GI50 (A549 NSCLC): 17.1 µM
- TGI (A549 NSCLC): 34.2 µM
- GI50 (UO-31 renal): 22.4 µM
- TGI (UO-31 renal): 40 µM
- GI50 (SK-MEL-5 melanoma): 2.99 µM
- TGI (SK-MEL-5 melanoma): 11.3 µM
- GI50 (IGROV1 ovarian): 15.4 µM
- TGI (IGROV1 ovarian): 40.7 µM
- GI50 (M14 melanoma): 12.7 µM
- TGI (M14 melanoma): 29.8 µM
- GI50 (K-562 leukemia): 4 µM
- TGI (K-562 leukemia): > 100 µM
- GI50 (SR leukemia): 5.31 µM
- TGI (SR leukemia): > 100 µM
- GI50 (OVCAR-5 ovarian): 28.9 µM
- TGI (OVCAR-5 ovarian): 71.8 µM
- GI50 (COLO 205 colon): 33.3 µM
- TGI (COLO 205 colon): > 100 µM
- GI50 (M19-MEL melanoma): 15.4 µM
- TGI (M19-MEL melanoma): 36.5 µM
- GI50 (OVCAR-4 ovarian): 15.6 µM
- TGI (OVCAR-4 ovarian): 30.6 µM
- GI50 (SF-268 CNS): 15.4 µM
- TGI (SF-268 CNS): 35.4 µM
- GI50 (DLD-1 colon): 13.6 µM
- TGI (DLD-1 colon): 51.1 µM
- GI50 (DMS 273 small cell lung): 18.4 µM
- TGI (DMS 273 small cell lung): 50.4 µM
- GI50 (HOP-62 NSCLC): 20.8 µM
- TGI (HOP-62 NSCLC): 36.4 µM
- GI50 (OVCAR-3 ovarian): 12.8 µM
- TGI (OVCAR-3 ovarian): 25.5 µM
- GI50 (HCC-2998 colon): 17.6 µM
- TGI (HCC-2998 colon): 32.6 µM
- GI50 (EKVX NSCLC): 20.6 µM
- TGI (EKVX NSCLC): 41.3 µM
- GI50 (SK-MEL-28 melanoma): 12.6 µM
- TGI (SK-MEL-28 melanoma): 26.3 µM
- GI50 (TK-10 renal): 13 µM
- TGI (TK-10 renal): 25.7 µM
- GI50 (HT29 colon): 12.2 µM
- TGI (HT29 colon): 30.5 µM
- GI50 (ACHN renal): 14.2 µM
- TGI (ACHN renal): 27.3 µM
- GI50 (786-0 renal): 10.9 µM
- TGI (786-0 renal): 24.4 µM
- GI50 (CCRF-CEM leukemia): 4.01 µM
- TGI (CCRF-CEM leukemia): 49.5 µM
- GI50 (SN12C renal): 17.5 µM
- TGI (SN12C renal): 33.3 µM
- GI50 (SK-MEL-2 melanoma): 16.1 µM
- TGI (SK-MEL-2 melanoma): 31.7 µM
- GI50 (NCI-H23 lung): 10.6 µM
- TGI (NCI-H23 lung): 24.5 µM
- GI50 (HCT-116 colon): 18.2 µM
- TGI (HCT-116 colon): 41.1 µM
- GI50 (NCI-H522 lung): 10.4 µM
- TGI (NCI-H522 lung): 35.8 µM
- GI50 (XF 498 CNS): 4.38 µM
- TGI (XF 498 CNS): 15.6 µM
- GI50 (KM12 colon): 16.9 µM
- TGI (KM12 colon): 34.8 µM
- GI50 (LXFL 529 NSCLC): 6.54 µM
- TGI (LXFL 529 NSCLC): 20.7 µM
- GI50 (RXF 393 renal): 3.44 µM
- TGI (RXF 393 renal): 16.2 µM
- GI50 (SF-295 CNS): 18.5 µM
- TGI (SF-295 CNS): 36.2 µM
- GI50 (RXF-631 renal): 2.39 µM
- TGI (RXF-631 renal): 7.75 µM
- GI50 (SF-539 CNS): 18.1 µM
- TGI (SF-539 CNS): 37.1 µM
